# Data: patent publication EP0066456B1, “N-substituted azaheterocyclic carboxylic acids and their esters” (SMITHKLINE BECKMAN CORPORATION, priority 1981, dated 1982)
# System: contralateral rotation in rats induced by unilateral injection of GABA into the pars reticulata of the substantia nigra
# Test: potentiation of GABA-induced contralateral rotation in rats (unilateral GABA injection into pars reticulata of substantia nigra)
# Assay type: in vivo
# Details: systemic administration, doses from 2.5 to 40.0 mg/kg, I.P.
# Experimental: Compounds active in the in vitro test described above are tested by systemic administration for their ability to penetrate the central nervous system and potentiate the rotation induced by GABA.
structure (smiles),measurement,value
"Cl.O=C(O)C1CCCN(CCC=C(c2ccccc2)c2ccccc2)C1 (stereo not shown) [1 - (4,4 - diphenyl - 3 - butenyl) - 3 - piperidinecarboxylic acid hydrochloride]",potentiation of contralateral rotation induced by GABA,significantly active
